From US9370507B2, “Pyridonyl guanidine F1F0-ATPase inhibitors and therapeutic uses thereof” (Lycera Corporation, priority 2010, dated 2016)

Key:
Ramos cells = test: Cytotoxicity in Ramos cells; type: cell-based; conditions: Homo sapiens, read-out: Ramos Cell EC50
Protocol: (§1) The compounds listed in Table 4 were tested for activity against F1F0-ATPase by measuring the ability of the compounds to inhibit ATP synthesis. In addition, the compounds were assessed for cytotoxicity in Ramos cells Inhibition of F1F0-ATPase activity in synthesizing ATP and cytotoxicity in Ramos cells were measured according to the procedures described in K. M. Johnson et al. Chemistry & Biology 2005, 12, 485-496.

F1F0-ATPase = target: T1, F1F0-ATPase (Bos taurus, UniProt P13621); test: Inhibition of F1F0-ATPase activity in synthesizing ATP; type: biochemical; conditions: inhibition of ATP synthesis; read-out: ATP Syn IC50
T1 construct: from tissue
Protocol: as §1

SMILES | EC50 (Ramos cells) | IC50 (F1F0-ATPase)
CC(=O)Nc1cccc(NC(=NC(=O)c2ccc(Cl)cc2)Nc2cc(F)cc(Cl)c2)n1 [Compound A-140] | > 10 µM | < 10 µM
CC(C)(C)CN/C(=N/C(=O)c1ccc(Cl)cc1)Nc1cccc(NS(=O)(=O)c2ccccc2)n1 [Compound A-133] | > 10 µM | < 10 µM
O=C(/N=C(/NCc1ccc(Cl)cc1F)Nc1cccc(NS(=O)(=O)c2cccnc2)n1)c1ccc(Cl)cc1 [Compound A-148] | < 10 µM | < 10 µM
O=C(/N=C(/NCc1cccc(C(F)(F)F)c1)Nc1cccc(O)n1)c1ccc(C(F)(F)F)cc1 [Compound A-33] | < 10 µM | < 10 µM
O=C(/N=C(/NCc1cc(F)c(F)c(F)c1)Nc1cccc(O)n1)c1ccc(Cl)cc1 [Compound A-60] | > 10 µM | < 10 µM
CN(/C(=N\C(=O)c1ccc(F)c(F)c1)Nc1cccc(O)n1)c1ccc(F)c(Cl)c1 [Compound A-10] | > 10 µM | > 10 µM
O=C(/N=C(/Nc1cc(F)cc(Cl)c1)Nc1cccc(O)n1)c1ccc(Cl)c(F)c1 [Compound A-23] | < 10 µM | < 10 µM
CC(C)(C)c1ccccc1N/C(=N/C(=O)c1ccc(C(F)(F)F)cc1)Nc1cccc(O)n1 [Compound A-14] | < 10 µM | < 10 µM
O=C(/N=C(\Nc1cccc(O)n1)Nc1ccc(F)cc1C1CC1)c1ccc(F)c(F)c1 [Compound A-11] | < 10 µM | < 10 µM
O=C(/N=C(/NCc1ccc(Cl)cc1F)Nc1cccc(NS(=O)(=O)CC(F)(F)F)n1)c1ccc(Cl)cc1 [Compound A-136] | < 10 µM | < 10 µM
O=C(/N=C(/NCc1ccc(Cl)cc1F)Nc1cccc(NS(=O)(=O)c2ccccn2)n1)c1ccc(Cl)cc1 [Compound A-137] | > 10 µM | < 10 µM
O=C(/N=C(/Nc1cccc(Cl)c1)Nc1cccc(O)n1)c1cccc(C(F)(F)F)c1 [Compound A-20] | < 10 µM | < 10 µM
O=C(/N=C(/NCc1cc(F)c(F)c(F)c1)Nc1cccc(O)n1)c1ccc(C(F)(F)F)cc1 [Compound A-37] | < 10 µM | < 10 µM
CC1CCC(N/C(=N/C(=O)c2ccc(C(F)(F)F)cc2)Nc2cccc(O)n2)CC1 (centres unmarked) [Compound A-29] | < 10 µM | < 10 µM
O=C(/N=C(\Nc1cccc(O)n1)NC1CC1)c1ccc(C(F)(F)F)cc1 [Compound A-48] | > 10 µM | < 10 µM
O=C(/N=C(/NCC1CC1)Nc1cccc(O)n1)c1ccc(C(F)(F)F)cc1 [Compound A-40] | < 10 µM | < 10 µM
CCS(=O)(=O)Nc1cccc(N/C(=N\C(=O)c2ccc(Cl)cc2)NCC(C)(C)C)n1 [Compound A-131] | < 10 µM | < 10 µM
O=C(/N=C(/NCc1cccc(Cl)c1)Nc1cccc(O)n1)c1ccc(F)c(F)c1 [Compound A-72] | < 10 µM | < 10 µM
CC1(N/C(=N\C(=O)c2ccc(C(F)(F)F)cc2)Nc2cccc(O)n2)CCC1 [Compound A-47] | < 10 µM | < 10 µM
N#Cc1ccccc1S(=O)(=O)Nc1cccc(N/C(=N\C(=O)c2ccc(Cl)cc2)NCc2ccc(Cl)cc2F)n1 [Compound A-138] | < 10 µM | < 10 µM
C[C@@H](N/C(=N/C(=O)c1ccc(Cl)cc1)Nc1cccc(O)n1)C1CCCCC1 [Compound A-103] | < 10 µM | < 10 µM
CS(=O)(=O)Nc1cccc(N/C(=N\C(=O)c2ccc(C(F)(F)F)cc2)NCc2ccccc2C(F)(F)F)n1 [Compound A-114] | < 10 µM | < 10 µM
O=C(/N=C(/NCc1ccc(C(F)(F)F)cc1)Nc1cccc(O)n1)c1ccc(F)c(F)c1 [Compound A-35] | < 10 µM | < 10 µM
O=C(/N=C(/NCc1ccccc1C(F)(F)F)Nc1cccc(NS(=O)(=O)CC(F)(F)F)n1)c1ccc(C(F)(F)F)cc1 [Compound A-116] | < 10 µM | < 10 µM
O=C(/N=C(/Nc1cccc(C(F)(F)F)c1)Nc1cccc(O)n1)c1ccc(Cl)c(F)c1 [Compound A-18] | < 10 µM | < 10 µM
